{"source": "ChEMBL document CHEMBL5236553", "about": "“Advances in the development of HIV integrase strand transfer inhibitors” (Eur J Med Chem, 2021)", "key": {"[1]": {"test_system": "Human immunodeficiency virus", "assay": "Antiviral activity against HIV-1 harboring integrase E92Q mutant", "format": "functional"}, "[2]": {"test_system": "Integrase (Human immunodeficiency virus 1)", "assay": "Inhibition of HIV-1 integrase-catalyzed strand transfer"}, "[3]": {"molecular_target": "Human immunodeficiency virus type 1 integrase (Human immunodeficiency virus 1, UniProt Q7ZJM1)", "assay": "Inhibition of HIV-1 integrase strand transfer activity"}, "[4]": {"test_system": "Human immunodeficiency virus", "assay": "Antiviral activity against wild type HIV-1 integrase", "format": "functional, organism-based", "settings": "Human immunodeficiency virus 1"}, "[5]": {"test_system": "Human immunodeficiency virus", "assay": "Antiviral activity against HIV-1 harboring integrase Q148R mutant", "format": "functional, organism-based", "settings": "Human immunodeficiency virus 1"}, "[6]": {"test_system": "Human immunodeficiency virus", "assay": "Antiviral activity against HIV-1 harboring integrase G140S/Q148H double mutant", "format": "functional, organism-based", "settings": "Human immunodeficiency virus 1"}, "[7]": {"test_system": "Human immunodeficiency virus", "assay": "Antiviral activity against HIV-1 harboring integrase N155H mutant", "format": "functional, organism-based", "settings": "Human immunodeficiency virus 1"}, "[8]": {"test_system": "Human immunodeficiency virus", "assay": "Antiviral activity against HIV-1 assessed as inhibition of HIV infection in human T cells by cell based assay", "format": "functional, organism-based", "settings": "Human immunodeficiency virus 1, T-cell"}, "[9]": {"test_system": "Human immunodeficiency virus", "assay": "Antiviral activity against HIV-1 harboring integrase L74M mutant", "format": "functional, organism-based", "settings": "Human immunodeficiency virus 1"}, "[10]": {"test_system": "Human immunodeficiency virus", "assay": "Antiviral activity against HIV-1 harboring integrase M50I mutant", "format": "functional, organism-based", "settings": "Human immunodeficiency virus 1"}, "[11]": {"test_system": "Human immunodeficiency virus", "assay": "Antiviral activity against HIV-1 harboring integrase G140S/Q148H mutant", "format": "functional, organism-based", "settings": "Human immunodeficiency virus 1"}, "[12]": {"test_system": "Human immunodeficiency virus", "assay": "Antiviral activity against HIV-1 harboring integrase […]/N155H mutant", "format": "functional, organism-based", "settings": "Human immunodeficiency virus 1"}, "[13]": {"test_system": "Human immunodeficiency virus", "assay": "Antiviral activity against HIV-1 harboring integrase E138K/Q148K mutant", "format": "functional, organism-based", "settings": "Human immunodeficiency virus 1"}, "[14]": {"test_system": "Human immunodeficiency virus", "assay": "Fold change in antiviral EC50 against HIV-1 harboring integrase Y143R mutant", "settings": "Human immunodeficiency virus 1"}, "[15]": {"test_system": "Human immunodeficiency virus", "assay": "Fold change in antiviral EC50 against HIV-1 harboring integrase Q148K mutant", "settings": "Human immunodeficiency virus 1"}, "Integrase [16]": {"molecular_target": "T1, Integrase (Human immunodeficiency virus 1, UniProt T1QYY3, G140S/Q148H)", "assay": "Inhibition of HIV-1 integrase RAL-resistant G140S/Q148H double mutant"}, "[17]": {"molecular_target": "Human immunodeficiency virus type 1 integrase (Human immunodeficiency virus 1, UniProt Q7ZJM1, G118R)", "assay": "Inhibition of HIV-1 integrase DTG-resistant G118R mutant"}, "[18]": {"molecular_target": "Human immunodeficiency virus type 1 integrase (Human immunodeficiency virus 1, UniProt Q7ZJM1, R263K)", "assay": "Inhibition of HIV-1 integrase DTG-resistant R263K mutant"}, "[19]": {"molecular_target": "Human immunodeficiency virus type 1 integrase (Human immunodeficiency virus 1, UniProt Q7ZJM1, H51Y/R263K)", "assay": "Inhibition of HIV-1 integrase DTG-resistant H51Y/R263K double mutant"}, "Integrase [20]": {"molecular_target": "T1, Integrase", "assay": "Inhibition of HIV-1 integrase G140S/Q148H double mutant"}, "[21]": {"test_system": "Human immunodeficiency virus", "assay": "Binding affinity to HIV-1 wildtype integrase DNA complex assessed as dissociative half life"}, "[22]": {"assay": "Clearance in rat plasma", "format": "ADME, cell-free"}, "[23]": {"assay": "Clearance in dog plasma", "format": "ADME, cell-free, Canis lupus familiaris"}}}
{"smiles": "Cc1nnc(C(=O)NC(C)(C)c2nc(C(=O)NCc3ccc(F)cc3)c(O)c(=O)n2C)o1", "values": [{"measurement": "fold change (FC)", "setting": "[1]", "result": 3}, {"measurement": "IC50", "setting": "[2]", "result": 10, "unit": "nM"}]}
{"smiles": "O=C(NCc1ccc(F)c(F)c1)c1c(O)c2cccnc2n(O)c1=O", "values": [{"measurement": "IC50", "setting": "[3]", "result": 400, "unit": "nM"}]}
{"smiles": "CC1(C)OCCn2c1nc(C(=O)NCc1ccc(F)cc1)c(O)c2=O", "values": [{"measurement": "EC50", "setting": "[4]", "result": 3, "unit": "nM"}, {"measurement": "EC50", "setting": "[5]", "result": 300, "unit": "nM"}, {"measurement": "EC50", "setting": "[6]", "result": "> 8000", "unit": "nM"}, {"measurement": "EC50", "setting": "[7]", "result": 140, "unit": "nM"}]}
{"smiles": "COc1cc2c(cc1Cc1cccc(Cl)c1F)c(=O)c(C(=O)O)cn2[C@H](CO)C(C)C", "values": [{"measurement": "EC50", "setting": "[8]", "result": 0.9, "unit": "nM"}]}
{"smiles": "O=C(NCc1ccc(F)c(Cl)c1)c1cc2cccnc2n(O)c1=O", "values": [{"measurement": "IC50", "setting": "[3]", "result": 140, "unit": "nM"}]}
{"smiles": "CC1(C)OCCn2c1nc(-c1ncc(Cc3ccc(F)cc3)[nH]1)c(O)c2=O", "values": [{"measurement": "EC50", "setting": "[4]", "result": 6, "unit": "nM"}, {"measurement": "EC50", "setting": "[5]", "result": 33, "unit": "nM"}, {"measurement": "EC50", "setting": "[6]", "result": 320, "unit": "nM"}, {"measurement": "EC50", "setting": "[7]", "result": 2, "unit": "nM"}]}
{"smiles": "Nc1c(C(=O)NCc2ccc(F)cc2F)c(=O)n(O)c2ncc(CCCCCCO)cc12", "values": [{"measurement": "EC50", "setting": "[9]", "result": 1.6, "unit": "nM"}, {"measurement": "EC50", "setting": "[10]", "result": 1.3, "unit": "nM"}, {"measurement": "EC50", "setting": "[11]", "result": 0.9, "unit": "nM"}, {"measurement": "EC50", "setting": "[12]", "result": 1.1, "unit": "nM"}, {"measurement": "EC50", "setting": "[13]", "result": 16, "unit": "nM"}]}
{"smiles": "C[C@H](O)N1C(=O)c2c3c(c(O)c(=O)n2[C@]12CC[C@H]1C[C@H]12)C(=O)N(Cc1ccc(F)c(Cl)c1)CC3", "values": [{"measurement": "EC50", "setting": "[5]", "result": 1.5, "unit": "nM"}, {"measurement": "EC50", "setting": "[7]", "result": 1.5, "unit": "nM"}, {"measurement": "fold change (FC)", "setting": "[1]", "result": 1.5}, {"measurement": "fold change", "setting": "[14]", "result": 1}, {"measurement": "fold change", "setting": "[15]", "result": 1}]}
{"smiles": "O=C(NCc1ccc(F)cc1F)c1cc2cccnc2n(O)c1=O", "values": [{"measurement": "IC50", "setting": "[3]", "result": 410, "unit": "nM"}]}
{"smiles": "O=C(NCc1ccc(F)cc1F)c1cc2cccc(O)c2n(O)c1=O", "values": [{"measurement": "IC50", "setting": "[3]", "result": 1800, "unit": "nM"}]}
{"smiles": "O=C(NCc1c(F)cc(F)cc1F)c1cn2c(c(O)c1=O)C(=O)N1[C@H]3CC[C@H](C3)O[C@@H]1C2", "note": "[BICTEGRAVIR]", "values": [{"measurement": "EC50", "setting": "Integrase [16]", "result": "≤ 5", "unit": "nM"}, {"measurement": "EC50", "setting": "[17]", "result": "≤ 5", "unit": "nM"}, {"measurement": "EC50", "setting": "[18]", "result": "≤ 5", "unit": "nM"}, {"measurement": "EC50", "setting": "[19]", "result": "≤ 5", "unit": "nM"}, {"measurement": "EC50", "setting": "Integrase [20]", "result": 3.1, "unit": "nM"}]}
{"smiles": "C[C@@H]1CCO[C@H]2Cn3cc(C(=O)NCc4ccc(F)cc4F)c(=O)c(O)c3C(=O)N12", "note": "[DOLUTEGRAVIR]", "values": [{"measurement": "T1/2", "setting": "[21]", "result": 71, "unit": "h"}, {"measurement": "EC50", "setting": "[9]", "result": 2.2, "unit": "nM"}, {"measurement": "EC50", "setting": "[10]", "result": 2.1, "unit": "nM"}, {"measurement": "EC50", "setting": "[11]", "result": 3.9, "unit": "nM"}, {"measurement": "EC50", "setting": "[12]", "result": 4, "unit": "nM"}, {"measurement": "EC50", "setting": "[13]", "result": 25, "unit": "nM"}]}
{"smiles": "O=C(NCc1ccc(F)c(F)c1)c1cc2cccnc2n(O)c1=O", "values": [{"measurement": "IC50", "setting": "[3]", "result": 170, "unit": "nM"}]}
{"smiles": "O=C(NCc1ccc(F)c(Cl)c1)c1c(O)c2cccnc2n(O)c1=O", "values": [{"measurement": "IC50", "setting": "[3]", "result": 270, "unit": "nM"}]}
{"smiles": "CC(C)n1c(C(=O)N(C)C)c2c(c(O)c1=O)C(=O)N(Cc1ccc(F)c(Cl)c1)CC2", "values": [{"measurement": "fold change (FC)", "setting": "[1]", "result": 1}, {"measurement": "clearance", "setting": "[22]", "result": 2.3, "unit": "mL/min/kg"}, {"measurement": "clearance", "setting": "[23]", "result": 2.2, "unit": "mL/min/kg"}, {"measurement": "fold change", "setting": "[14]", "result": 2}, {"measurement": "fold change", "setting": "[15]", "result": 1}]}
{"smiles": "O=C(NCc1ccc(F)cc1F)c1c(O)c2cccnc2n(O)c1=O", "values": [{"measurement": "IC50", "setting": "[3]", "result": 550, "unit": "nM"}]}
{"smiles": "CN1C(=O)c2c3c(c(O)c(=O)n2[C@]12CC[C@H]1C[C@@]12CO)C(=O)N(Cc1ccc(F)c(Cl)c1)CC3", "values": [{"measurement": "fold change (FC)", "setting": "[1]", "result": 1}, {"measurement": "fold change", "setting": "[14]", "result": 1}, {"measurement": "fold change", "setting": "[15]", "result": 1}]}
